This is an account of results in patent US20260248768A1, “MYC PROGRAM AS A MARKER OF RESPONSE TO ENZALUTAMIDE IN PROSTATE CANCER” (Rutgers, The State University of New Jersey, priority 2022, published 2026).

Type in all cases: cell-based
In one data set the test system is LNCaP cells. As to the kind of experiment: Dose-response cell viability assay in LNCaP cells. The following applies: both Enzalutamide-naïve and Enzalutamide-resistant conditions, dose-dependent manner (FIG. 14A). On the procedure:
(§1) FIGS. 14A and 14B show MYC inhibition reduces viability and colony formation in Enzalutamide resistant conditions. (FIG. 14A) Drug response curves of Enzalutamide naïve LNCaP or Enzalutamide-resistant LNCaP cells treated with Enzalutamide and/or MYC-i975. (FIG. 14B) Colony formation assay using Enzalutamide-resistant LNCaP cells t (LNCaP-Enza-Res) in intact (treated with DMSO), treated with enzalutamide (10 μM), MYC-i975 (2 μM), or a combination of Enzalutamide+MYC-i975 (10 μM+2 μM). Cells were grown in the presence of respective drugs. Bars represent quantification of Crystal Violet trapped by migrated cells. P-value is estimated utilizing one-tailed Welch t-test. * p<0.05, *** p≤0.001.
(§2) Generation of Enzalutamide-resistant cell lines: LNCaP (clone FDG) and C42B cells were purchased from ATCC and were grown in RPMI1640 media (GIBCO #11875093) supplemented with 10% Fetal Bovine Serum (FBS, Corning Cat #35-011-CV) and maintained at […] in and 5% CO2. Enzalutamide powder was purchased from Sellekchem (cat #S1250) and re-suspended in DMSO. Cells were plated in 6 well plates and treated either with DMSO, or with Enzalutamide (20 μM), refreshed every 4 days for up to 3 months until the resistance emerged. RNA from cells was extracted on indicated days using the methods described below. […]

The next data set relates to C42B cells. Put plainly: Dose-response cell viability assay in C42B cells. The note with it: both Enzalutamide-naïve and Enzalutamide-resistant conditions, dose-dependent manner (FIG. 13A). On the procedure: (§3) FIGS. 13A-13F show MYC targeting is beneficial for patients in Enzalutamide-resistant conditions. (FIG. 13A) Drug sensitivity curves of Enzalutamide-naïve, or Enzalutamide-resistant (EnzaRes) C42B cells treated with MYCi975. (FIG. 13B) Colony formation assay using Enzalutamide-resistant (EnzaRes) C42B cells in Intact (treated with DMSO), treated with Enzalutamide (10 μM), MYCi975 (2 μM), or a combination of Enzalutamide+MYCi975 (10 μM+2 μM). Cells were grown in the presence of respective drugs. Representative images are shown. P-value was estimated using a one-tailed Welch t-test. (FIG. 13C) Boyden chamber-based in vitro migration assay using Enzalutamide-resistant (EnzaRes) C42B cells in Intact (treated with DMSO), treated with Enzalutamide (10 μM), MYCi975 (2 μM), or a combination of Enzalutamide+MYCi975 (10 μM+2 μM). Bars represent the quantification of Crystal Violet trapped by migrated cells. P-value was estimated using a one-tailed Welch t-test. (FIG. 13D) Expression of NME2 in Intact and Enzalutamide-resistant (EnzaRes) C42B cells, using the qRT-PCR. P-value was estimated using the one-tailed Welch t-test. […] Bars represent the quantification of Crystal Violet trapped by migrated cells. * p-value <0.05, ** p-value≤0.01, *** p-value≤0.001 […]

For the next data set, the system named is LNCaP-EnzaRes cells. As to the kind of experiment: Colony formation assay, Enzalutamide-resistant LNCaP cells. The note with it: MYCi975 2 μM, Enzalutamide 10 μM, compared to Intact (DMSO). Here is the method: as §1, §2
Data set [1] concerns C42B-EnzaRes cells. Put plainly: Colony formation assay, Enzalutamide-resistant C42B cells. The note with it: MYCi975 2 μM, Enzalutamide 10 μM, compared to Intact (DMSO). Here is the method:
as §3

In data set [2] the test system is C42B-EnzaRes cells. Put plainly: Boyden chamber-based in vitro migration assay. The following applies: MYCi975 2 μM, Enzalutamide 10 μM, vs Intact (DMSO). Here is the method:
FIGS. 13A-13F show MYC targeting is beneficial for patients in Enzalutamide-resistant conditions. (FIG. 13A) Drug sensitivity curves of Enzalutamide-naïve, or Enzalutamide-resistant (EnzaRes) C42B cells treated with MYCi975. (FIG. 13B) Colony formation assay using Enzalutamide-resistant (EnzaRes) C42B cells in Intact (treated with DMSO), treated with Enzalutamide (10 μM), MYCi975 (2 μM), or a combination of Enzalutamide+MYCi975 (10 μM+2 μM). Cells were grown in the presence of respective drugs. Representative images are shown. P-value was estimated using a one-tailed Welch t-test. (FIG. 13C) Boyden chamber-based in vitro migration assay using Enzalutamide-resistant (EnzaRes) C42B cells in Intact (treated with DMSO), treated with Enzalutamide (10 μM), MYCi975 (2 μM), or a combination of Enzalutamide+MYCi975 (10 μM+2 μM). Bars represent the quantification of Crystal Violet trapped by migrated cells. P-value was estimated using a one-tailed Welch t-test. (FIG. 13D) Expression of NME2 in Intact and Enzalutamide-resistant (EnzaRes) C42B cells, using the qRT-PCR. P-value was estimated using the one-tailed Welch t-test. […] Bars represent the quantification of Crystal Violet trapped by migrated cells. * p-value <0.05, ** p-value≤0.01, *** p-value≤0.001

A further data set has as its system MYC. Put plainly: Doxycycline-inducible shRNA knockdown of NME2, MYC expression by Western blot. The note with it: C4-2B cells; 0-2000 ng/mL doxycycline for 96 hours; Western blot (FIG. 15). Here is the method:
Finally, C4-2B cells expressing doxycycline-inducible shRNA targeting NME2 were generated using the targeting sequence […] (SEQ ID NO: 9). Cells were treated with 0-2000 ng/mL doxycycline for 96 hours and NME2 and MYC expression were evaluated by Western blot.

Regarding `Cn1nc(C(F)(F)F)cc1-c1ccc(OCc2ccc(Cl)cc2)c(-c2ccc(Cl)c(C(F)(F)F)c2)c1O` [MYCi975], the cell viability entry in the data set with LNCaP cells and in the data set on C42B cells was “striking reduction of the cell viability” throughout. The colony formation entry in the data set on LNCaP-EnzaRes cells and in the data set on C42B-EnzaRes cells [1] was “reduced the colony formation” in each case. The cell migration result in the data set with C42B-EnzaRes cells [2] is on record as “significant reduction in cell migration”.

Turning to “shRNA targeting NME2: doxycycline-inducible shRNA targeting NME2, targeting sequence GAAATCAGCCTATGGTTTAAG”, the MYC expression entry in the data set with MYC is “suppresses MYC expression”.
